Paper PMC2963310 (Science (New York, N.Y.), 2009)
One block for each molecule: values may come before it.

Legend:
[1] = molecular target: T1, LGC-40 (Caenorhabditis elegans, UniProt Q22741); format: cell-based; conditions: for estimated Hill coefficient, LGC-40: dose-response data fitted to the Hill equation
T1 sequence (Q22741 23-494): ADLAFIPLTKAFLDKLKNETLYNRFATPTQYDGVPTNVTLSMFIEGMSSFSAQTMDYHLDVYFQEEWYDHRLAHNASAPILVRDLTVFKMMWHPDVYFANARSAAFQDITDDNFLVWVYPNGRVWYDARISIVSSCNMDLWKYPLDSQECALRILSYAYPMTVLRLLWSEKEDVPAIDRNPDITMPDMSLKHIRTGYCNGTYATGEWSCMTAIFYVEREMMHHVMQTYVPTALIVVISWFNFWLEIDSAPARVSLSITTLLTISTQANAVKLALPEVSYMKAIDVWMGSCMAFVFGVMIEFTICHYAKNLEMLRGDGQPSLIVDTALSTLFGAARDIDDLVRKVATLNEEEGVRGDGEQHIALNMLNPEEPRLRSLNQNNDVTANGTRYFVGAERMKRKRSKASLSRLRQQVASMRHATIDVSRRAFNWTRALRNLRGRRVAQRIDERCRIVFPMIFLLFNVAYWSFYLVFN

[2] = molecular target: T1, LGC-40; test: Inhibition of choline-evoked LGC-40 currents in Xenopus oocytes; format: cell-based
[3] = molecular target: LGC-55 (Caenorhabditis elegans, UniProt G5EEC1); format: cell-based
[4] = molecular target: T2, LGC-53 (Caenorhabditis elegans, UniProt H2KYN9); test: Inhibition of dopamine-evoked LGC-53 currents in Xenopus oocytes; format: cell-based
[5] = molecular target: T2, LGC-53
[6] = molecular target: T2, LGC-53; test: cell-based
[7] = dose-response data fitted to the Hill equation
[8] = panel: serotonin, dopamine, octopamine, tyramine, histamine

EC50 [1]: 3.4 µM
estimated Hill coefficient, LGC-40 [1]: 1.9
SMILES: C[N+](C)(C)CCO [choline]

SMILES: C[N+]1(C)CCOC(O)(c2ccc(-c3ccc(C4(O)C[N+](C)(C)CCO4)cc3)cc2)C1 (stereo not shown) [Hemicholinium-3, hemicholinium-3]
IC50 [2]: 2 µM

SMILES: CN1[C@@H]2CC[C@H]1C[C@@H](OC(=O)C(CO)c1ccccc1)C2 (stereo partly shown) [atropine]
sensitivity of LGC-40 currents to antagonist (in words) ([2]; currents evoked by 2 μM choline): relatively insensitive

SMILES: CC(=O)OCC[N+](C)(C)C [acetylcholine]
EC50 [1]: 87 µM
estimated Hill coefficient, LGC-40 [1]: 1.5

SMILES: COc1cc2c3cc1Oc1cc(ccc1O)C[C@@H]1c4c(cc(OC)c(O)c4Oc4ccc(cc4)C[C@@H]3N(C)CC2)CC[N+]1(C)C [d-tubocurarine]
IC50 [2]: 8.3 µM

SMILES: NCCc1c[nH]c2ccc(O)cc12 [serotonin]
EC50 [1]: 905 µM
estimated Hill coefficient, LGC-40 [1]: 2.7

EC50 [3]: 6 µM
estimated Hill coefficient, LGC-55 [3, 7]: 1.8
efficacy of activation of LGC-55 among the biogenic amines tested (in words) [3, 8]: highest efficacy
SMILES: NCCc1ccc(O)cc1 [tyramine]

IC50 [4]: 38 µM
SMILES: O=C(CCCN1CCC2(CC1)C(=O)NCN2c1ccccc1)c1ccc(F)cc1 [spiperone]

SMILES: NCCc1ccc(O)c(O)c1 [dopamine]
estimated Hill coefficient, LGC-53 [5, 7]: 1.9
efficacy of activation of LGC-53 among the biogenic amines tested (in words) [5, 8]: highest efficacy
EC50 [6]: 4.4 µM
